Measured values as given in US20020009436A1, “Methods and compositions for inhibiting adhesion by microorganisms” (priority 1999, published 2002).
Like-named read-outs stand apart in the source and are kept apart here. Blank lines part the entries; values can stand above or below the molecule they belong to.

Tests used:
polyphenol oxidase [1] = assay: Effect of inhibiting polyphenol oxidase activity on dextran aggregation; type: cell-based; settings: for effect on polyphenol oxidase induced inactivation: protease inhibitors added before polyphenol oxidase
Method: (§1) The standard rate assay published by Drake et al. (Drake D. et al. Infect. Immun. 56:1864-1872 (1988)) was used to study the interaction of S. sobrinus 6715 glucan-binding lectin with high molecular weight dextran. Briefly, bacterial suspensions were adjusted to an optical density of 0.75-0.90 in PBS, and 3-ml suspensions were added to test tubes (13×100 mm). Dextran T-2000 was added at a final concentration of 10 1μg/ml and the suspensions were vortexed for 5 sec. Control tubes received PBS. The decrease in optical density was continuously monitored spectrophotometrically for 5 min. Rate constants were obtained from the slopes of first-order plots of ln A/A0 (A=observed optical density; A0 optical density at time zero) versus time in minutes. Each sample was assayed at least three times.
Cells were suspended in phosphate buffer (20 mM, pH 6.5) and treated with either polyphenol oxidase (Worthington Biochemical Corporation, Freehold N.J., Lot 37A889) (1260 U/ml) for 1 h at 37° C. with rotary shaking (150 rev/min), then washed twice with cold PBS. Inhibitors (all from Sigma), when present, were added before polyphenol oxidase addition at the following concentrations: phenylmethylsulfonyl fluoride (PMSF) 500 μM; leupeptin, 500 μg/ml; ethylenediaminetetracetic acid (EDTA), 5 mM, potassium chloride 200 mM; polyvinylpyrrolidone, 500 μg/m; ascorbic acid, 3 mM; lactic acid, 10%.

polyphenol oxidase [2] = assay: as above; type: cell-based; settings: inhibitor concentration 2.5%
[3] = test system: B. fragilis (adhesin) / A. naeslundii ATCC 12104 (receptor); assay: Coaggregation B. fragilis / A. naeslundii ATCC 12104; settings: B. fragilis (adhesin) enzyme treated; polyphenol oxidase 90 U/ml
[4] = test system: type 1-fimbriated and P-fimbriated E. coli; assay: Growth inhibition of E. coli; type: cell-based; settings: ampicillin 1 mg/ml to 0.015 mg/ml; polyphenol oxidase 1128 to 17.5 units/ml; asparaginase 20 to 0.31 units/ml; data not shown
Method: Similar and/or art recognized methods were used to monitor the effects of asparaginase on growth of other microbes including two strains of E. coli, S. pyogenes, Klebsiella pneumoniae, Bacillus cereus, and Proteus vulgaris. Both type 1-fimbriated and P-fimbriated E. coli were incubated with polyphenol oxidase, asparaginase, and ampicillin to test the ability of these agents to inhibit the growth of the bacteria.

[5] = test system: E. coli possessing type 1 fimbriae / Saccharomyces cerevisiae cells; assay: Adhesion of E. coli to yeast; type: cell-based
Method: Materials and methods were generally as described in the previous Examples, but slightly modified for observing adhesion by E. coli to yeast. […] Cells were washed 2× in PBS and suspended in PB. Cells were treated with polyphenol oxidase at 37° C., washed 2×, and resuspended in PBS. E. coli (5×10^8 cells) were incubated with 1×10^5 Saccharomyces cerevisiae cells in a 3 ml volume and rotated with an end-over-end motion at 37° C. for 30 min. Suspensions were harvested, washed 2× in PBS and resuspended in 300 μl PBS. Methyl-α-D-mannose was added to some reaction mixtures. Ten μl samples were withdrawn and placed on a microscope slide, heat-fixed, stained with crystal violet for 2 min, rinsed and dried. Preparations were viewed at 1000× with phase-contrast microscopy. Numbers of bacteria bound to yeast cells were tabulated.

[6] = test system: S. sobrinus 6715 glucan-binding lectin; assay: Aggregation of S. sobrinus with high molecular weight dextran T-2000 (standard rate assay); type: cell-based, Streptococcus sobrinus; settings: dextran T-10 1 mg/ml or glycogen 2.5 mg/ml before polyphenol oxidase treatment
Method: S. sobrinus 6715 was maintained on tryptic soy agar (Difco, Detroit, Mich.) and grown for experiments in Terleckyj's defined medium or tryptic soy broth (TSB) (Difco) pretreated with dextranase (1 mg of enzyme per g dry medium) and invertase (5 mg per g dry medium) for 2 h each in 5% CO2 at 37° C. for 16-18h. Cultures were centrifuged at 12,000×g for 10 min and washed twice with cold phosphate buffered saline (PBS, 20 mM, pH 7.2). Cells were suspended in PBS to an optical density of 0.8 (A540). Cultures grown in TSB were harvested and suspended in PBS and subsequently treated with dextranase for 1 h, followed by washing two times in PBS.
as §1, with “Each sample was assayed at least three times.” left out

[7] = known polyphenol oxidase inhibitors

Molecule: [Cl-].[K+] [KCl, potassium chloride]
effect on the effects of polyphenol oxidase on glucan aggregation (polyphenol oxidase [1]; [7]): reduced the effects
Percent Inhibition of Polyphenol Oxidase Induced Reduction in Aggregation (polyphenol oxidase [2]): 100%

Molecule: CC(=O)N[C@@H](CC(C)C)C(=O)N[C@@H](CC(C)C)C(=O)N[C@H](C=O)CCCNC(=N)N [leupeptin]
Percent Inhibition of Polyphenol Oxidase Induced Reduction in Aggregation (polyphenol oxidase [1]; inhibitor concentration 500 μg/ml): 0%
effect on polyphenol oxidase induced inactivation (polyphenol oxidase [1]): completely inhibited

Molecule: Per: horseradish peroxidase
Inhibition % of coaggregation [3]: 11%

Molecule: CC1(C)S[C@@H]2[C@H](NC(=O)[C@H](N)c3ccccc3)C(=O)N2[C@H]1C(=O)O [ampicillin, reference compound]
inhibition of growth of P-fimbriated E. coli [4]: inhibited the growth
inhibition of growth of type 1-fimbriated E. coli [4]: inhibited the growth

Molecule: O=S(=O)(F)Cc1ccccc1 [PMSF, phenylmethylsulfonyl fluoride]
Percent Inhibition of Polyphenol Oxidase Induced Reduction in Aggregation (polyphenol oxidase [1]; inhibitor concentration 500 μM): 0%
effect on polyphenol oxidase induced inactivation (polyphenol oxidase [1]): completely inhibited

Molecule: COC1OC(CO)C(O)C(O)C1O [Methyl-α-mannose, Methyl-α-D-mannose]
effect of preincubating E. coli before polyphenol oxidase treatment [5]: eliminated polyphenol oxidase mediated reduction of adhesion
attachment of control cells to Saccharomyces ([5]; added to control cells): prevented their attachment

Molecule: glycogen [reference compound]
effect of pre-incubating the bacteria with carbohydrate on the polyphenol oxidase inhibition of aggregation [6]: no effect

Molecule: O=C(O)CN(CCN(CC(=O)O)CC(=O)O)CC(=O)O [EDTA, ethylenediaminetetracetic acid]
Percent Inhibition of Polyphenol Oxidase Induced Reduction in Aggregation (polyphenol oxidase [1]): 100%
effect on the effects of polyphenol oxidase on glucan aggregation (polyphenol oxidase [1]): reduced the effects

effect on the effects of polyphenol oxidase on glucan aggregation (polyphenol oxidase [1]; [7]): reduced the effects
Molecule: CC(O)C(=O)O (stereo not drawn) [lactic acid]
Percent Inhibition of Polyphenol Oxidase Induced Reduction in Aggregation (polyphenol oxidase [1]; inhibitor concentration 10%): 92 (+/−8) Percent

effect on the effects of polyphenol oxidase on glucan aggregation (polyphenol oxidase [1]; [7]): reduced the effects
Molecule: O=C1O[C@H]([C@@H](O)CO)C(O)=C1O [ascorbic acid]
Percent Inhibition of Polyphenol Oxidase Induced Reduction in Aggregation (polyphenol oxidase [1]; inhibitor concentration 3 mM): 100%
